# Where two headings read alike, the source gives them in different places.
# How the values were obtained:
# phosphodiesterase = assay: Inhibition of the phosphodiesterase activity (method of K. G. Nair); format: biochemical
# Experimental: The inhibition of phosphodiesterase activity of YS 035 and of papaverine has been assessed according to the method of K. G. Nair (Biochemistry, 5, 150, 1966).
# It has been used a medium containing:
# 2.5 ml of buffer tris-HCl 0.1M pH 7.4;
# 50 μl CAMP "Sigma" (1 mg/ml);
# 5 μl Adenosin deaminase (2 mg/ml);
# 20 μl of alkaline phosphatase "Sigma" (2.6 mg/ml);
# 15 μl of phosphodiesterase (10 mg/ml).
# YS 035 has been added up to a final concentration of 100 mM and Papaverine to a concentration of 10 mM.
# aorta of rabbits = assay: Antagonistic activity on the contractions produced by arachidonic acid on the aorta of rabbits, study in vitro; parameters: species or system rabbit
# Experimental: The study has been carried out by comparison with Nicardipine using autologous blood as the perfusion liquid. The addition of 0.1 mg of arachidonate to the liquid induces an isometric contraction of the aorta which is registered by a transducer. […] This phenomenon is shown by the relaxation which follows the addition of arachidonate to the perfusion blood. This effect may be noted with 0.1 mg/kg of YS 035 and 1 mg/kg of Nicardipine.
# calcium entry = assay: Calcium antagonistic activity (general statement); settings: compared with nifedipine
# rats [1] = assay: Anti-arrythmic and antiischemic effect in rats (left coronary artery tied); format: in vivo, rat
# Experimental: The left coronary artery, when it is tied, induces in the anesthetized rats a precocious arrythmia (30 minutes) particularly ectopic beats, ventricular tachycardia (VT), ventricular fibrillation (VF) according to the methods of Selye 1960, Clark 1980 and Parratt 1982.
# dogs = assay: Effect on the myocardial infarct in the subacute phase in dogs (method of Harris); format: in vivo, dog; settings: 0.1 mg/kg intravenously, three times within 48 hours
# Experimental: The tying up of the […] coronary artery by the method of Harris causes the following effects:
# The treatment with YS 035 in the dose of 0.1 mg/kg intravenously, carried after tying the coronary artery and three times within 48 hours in the same dose has provided the following results: […]
# [2] = Acute toxicity (Litchfield and Wilcoxon); settings: rat, in vivo, male rats, read-out: toxicity DL50
# From the text: The acute toxicity has been determined by the oral route, by the venous route in male rats according to the method of Litchfield and Wilcoxon (J. Pharm. Exp. Therap., (1949), 96, p. 99).
# [3] = tested on: kidney cells in newborn hamsters; assay: Inhibition of Ca2+-uptake in kidney cells in newborn hamsters; format: cell-based, hamster
# Experimental: Cells of kidneys of newborn hamsters have been washed and then resuspended several times in concentration of 5·10^6 /cc in the medium of the following composition:
# After 15 minutes of preincubation at 30° C., the reaction was made to begin by addition to the medium of ^45 CaCl2 1 mM (0.1μCi/cc). The concentrations at 0 period of time were the concentrations determined two minutes after the addition. The other controls were carried out after 5 minutes, 10 minutes, and 20 minutes. The determination of [Ca^2+ ] was carried out as in the preceding experiment.
# rats [4] = assay: Effect on the multiple cerebral infarct in rats (intracarotid sodium arachidonate); format: in vivo, rat; settings: 15 minutes prior to the infarct
# Experimental: The intracarotid injection of sodium arachidonate (0.1 mg) causes in rats an edema reaction accompanied by an accumulation of calcium in the brain tissue and a decrease, on the other hand, of the cholesterol level.
# [5] = tested on: mitochondria of liver of rats; assay: Study on the Ca2+-efflux in mitochondria of liver of rats; format: biochemical, rat; settings: 250 μM
# From the text: The mitochondria of liver of rats prepared as in the preceding experiment were "charged" with Ca and subsequently, taken in a medium deprived of this ion. In the presence of an uncoupling agent or "Ruthenium Red", there is a flow of Ca^2+ ion from the mitochondria into the medium.
# The results reported in Table 4 are expressed as the quantity of Ca transferred from the mitochondria per mg of protein per minute.
smiles,measurement,setting,value
"COc1ccc(CCN(C)CCc2ccc(OC)c(OC)c2)cc1OC [YS 035, N-methyl-N-bis-(3,4-dimethoxy-phenyl-ethyl)amine]",inhibiting activity on the phosphodiesterases (in words),phosphodiesterase; general statement,completely devoid of inhibiting activity on the phosphodiesterases
same,inhibition of phosphodiesterase activity (in words),phosphodiesterase; up to a final concentration of 100 mM,completely inactive
same,Contraction of the first portion of the aorta,aorta of rabbits; N = 4,48 ± 6.7 mm
same,inhibition at 0.01 mg/kg,"aorta of rabbits; Oryctolagus cuniculus, dose 0.01 mg·Kg^-1, read-out: Contraction of the second and third portion of the aorta, % Variation",42 ± 31%
same,inhibition at 0.1 mg/kg,"aorta of rabbits; Oryctolagus cuniculus, dose 0.1 mg·Kg^-1, second and third portion, read-out: % Variation, small contractions observed occasionally prior to relaxation (value in brackets)",60 ± 29.3%
same,inhibition at 1 mg/kg,"aorta of rabbits; Oryctolagus cuniculus, dose 1.0 mg·Kg^-1, read-out: Contraction of the second and third portion of the aorta, % Variation",132 ± 16.1%
same,inhibition at 1 mg/kg,"aorta of rabbits; Oryctolagus cuniculus, line without dose, below dose 1.0 mg·Kg^-1, read-out: Contraction of the second and third portion of the aorta, % Variation",16%
same,minimal effective dose,"aorta of rabbits; Oryctolagus cuniculus, autologous blood perfusion, 0.1 mg arachidonate, read-out: dose at which relaxation following the addition of arachidonate is noted",0.1 mg/kg
same,inhibitory effect on the contraction produced by the arachidonate (in words),aorta of rabbits; YS 035 compared with Nicardipine,comparable
same,calcium antagonistic activity (in words),calcium entry,"strong calcium antagonistic activity, comparable to nifedipine"
same,% Death,rats [1]; 0.156 mg/Kg I.V.,20%
same,Latent Time Death,rats [1]; 0.156 mg/Kg I.V.,26 min
same,Latent time,rats [1]; 0.156 mg/Kg I.V.,22
same,No. ectopic beats,rats [1]; 0.156 mg/Kg I.V.,907
same,VF,rats [1]; 0.156 mg/Kg I.V.,4 s
same,VF (%),rats [1]; 0.156 mg/Kg I.V.,40%
same,VT,rats [1]; 0.156 mg/Kg I.V.,34 s
same,% Death,rats [1]; 0.625 mg/Kg I.V.,0%
same,Latent Time Death,rats [1]; 0.625 mg/Kg I.V.,> 30 min
same,Latent time,rats [1]; 0.625 mg/Kg I.V.,30
same,No. ectopic beats,rats [1]; 0.625 mg/Kg I.V.,646
same,VF,rats [1]; 0.625 mg/Kg I.V.,0 s
same,VF (%),rats [1]; 0.625 mg/Kg I.V.,0%
same,VT,rats [1]; 0.625 mg/Kg I.V.,9 s
same,% Death,rats [1]; 1.25 mg/Kg I.V.,0%
same,Latent Time Death,rats [1]; 1.25 mg/Kg I.V.,> 30 min
same,Latent time,rats [1]; 1.25 mg/Kg I.V.,30
same,No. ectopic beats,rats [1]; 1.25 mg/Kg I.V.,684
same,VF,rats [1]; 1.25 mg/Kg I.V.,0 s
same,VF (%),rats [1]; 1.25 mg/Kg I.V.,0%
same,VT,rats [1]; 1.25 mg/Kg I.V.,29 s
same,% Death,rats [1]; 2.5 mg/Kg I.V.,0%
same,Latent Time Death,rats [1]; 2.5 mg/Kg I.V.,> 30 min
same,Latent time,rats [1]; 2.5 mg/Kg I.V.,26
same,No. ectopic beats,rats [1]; 2.5 mg/Kg I.V.,725
same,VF,rats [1]; 2.5 mg/Kg I.V.,9 s
same,VF (%),rats [1]; 2.5 mg/Kg I.V.,20%
same,VT,rats [1]; 2.5 mg/Kg I.V.,34 s
same,% Death,rats [1]; 5 mg/Kg I.V.,0%
same,Latent Time Death,rats [1]; 5 mg/Kg I.V.,> 30 min
same,Latent time,rats [1]; 5 mg/Kg I.V.,21
same,No. ectopic beats,rats [1]; 5 mg/Kg I.V.,1287
same,VF,rats [1]; 5 mg/Kg I.V.,5 s
same,VF (%),rats [1]; 5 mg/Kg I.V.,50%
same,VT,rats [1]; 5 mg/Kg I.V.,62 s
same,% Death,rats [1]; 10 mg/Kg I.V.,0%
same,Latent Time Death,rats [1]; 10 mg/Kg I.V.,> 30 min
same,Latent time,rats [1]; 10 mg/Kg I.V.,30
same,No. ectopic beats,rats [1]; 10 mg/Kg I.V.,474
same,VF,rats [1]; 10 mg/Kg I.V.,0 s
same,VF (%),rats [1]; 10 mg/Kg I.V.,0%
same,VT,rats [1]; 10 mg/Kg I.V.,9 s
same,% Death,rats [1]; 20 mg/Kg I.V.,0%
same,Latent Time Death,rats [1]; 20 mg/Kg I.V.,> 30 min
same,Latent time,rats [1]; 20 mg/Kg I.V.,20
same,No. ectopic beats,rats [1]; 20 mg/Kg I.V.,777
same,VF,rats [1]; 20 mg/Kg I.V.,10 s
same,VF (%),rats [1]; 20 mg/Kg I.V.,50%
same,VT,rats [1]; 20 mg/Kg I.V.,22 s
same,dose-effect relationship (in words),"rats [1]; above 10 mg/kg, endovenous",there is a regression of the results
same,"onset of VF, VT and death (in words)","rats [1]; endovenous, between 0.625 and 10 mg/kg",prevents the onset of the most serious arrythmia such as VF and VT and the death
same,consumption of glucose in the myocardium (in words),dogs,not changed
same,consumption of lactate (in words),dogs,has a tendency to return to normality
same,consumption of oxygen (in words),dogs,increases substantially
same,coronary blood flow (in words),dogs,"remains similar to that of the control groups, or at the most tends to increase moderately"
same,coronary vascular resistance (in words),dogs,"not only is reduced, but becomes inferior to that of the control group"
same,index of the aortic flow (in words),dogs,not changed
same,index of work of the left ventricle (in words),dogs,significantly higher than that present in the dogs with the infarct
same,ratio DPTI/TTI (in words),dogs,not changed
same,uptake of the free fatty acids (in words),dogs,increases and reaches also a value twice the basal flow measured in healthy control animals
same,LD50,"[2]; iv, venous route",19 mg/kg
same,LD50,[2]; oral route,178 mg/kg
same,Ca2+-uptake,"[3]; 250 μM, 30° C., control 11.9",7.5 n g ions/mg prot/15'
same,inhibitory action on the uptake of Ca (in words),"[3]; 250 μM, compared with nifedipine",superior to the activity of nifedipine
same,percent change in Ca2+-uptake versus control at 250 µM,"[3]; Mesocricetus auratus, 0.25 h, 15 min",-36.9%
same,entry of calcium in brain tissue (in words),rats [4]; 1 mg/kg intravenously,reduces moderately the entry of calcium
same,other changes at the biochemical level (in words),"rats [4]; intravenously, 1, 3.3 and 10 mg/kg",no effect
same,uncoupling action (in words),[5],does not exhibit this action
same,Ca2+-efflux induced by Ruthenium red,[5]; control 0.7,0.6 n g ions/min. mg/prot
same,Ca2+-efflux induced by uncoupling agent,[5]; control 8.3,5.4 n g ions/min. mg/prot

# — patent US4956389A, “Compounds having calcium blocking activity” (priority 1982, dated 1990)
